Test results: the NIST ThermoML archive (doi:10.1021/je800251v)

Details: Liquid

CCOC(=O)CC [ethyl propanoate]
Details | mass density [kg/m3]
298.15 K, 100 kPa | 884.3
298.15 K, 1000 kPa | 884.8
298.15 K, 2000 kPa | 885.7
298.15 K, 3000 kPa | 886.6
298.15 K, 3340 kPa | 886.9
298.15 K, 5000 kPa | 888.7
298.15 K, 10000 kPa | 892.9
298.15 K, 15000 kPa | 896.9
298.15 K, 20000 kPa | 900.7
298.15 K, 25000 kPa | 904.4
298.15 K, 30000 kPa | 908.9
298.15 K, 35000 kPa | 913.6
303.15 K, 100 kPa | 878.5
303.15 K, 1000 kPa | 879
303.15 K, 2000 kPa | 880
303.15 K, 3000 kPa | 880.9
303.15 K, 3340 kPa | 881.2
303.15 K, 5000 kPa | 883
303.15 K, 10000 kPa | 887.4
303.15 K, 15000 kPa | 891.6
303.15 K, 20000 kPa | 895.6
303.15 K, 25000 kPa | 899.4
303.15 K, 30000 kPa | 904
303.15 K, 35000 kPa | 908.9
308.15 K, 100 kPa | 872.7
308.15 K, 1000 kPa | 873.2
308.15 K, 2000 kPa | 874.2
308.15 K, 3000 kPa | 875.2
308.15 K, 3340 kPa | 875.5
308.15 K, 5000 kPa | 877.4
308.15 K, 10000 kPa | 882
308.15 K, 15000 kPa | 886.3
308.15 K, 20000 kPa | 890.4
308.15 K, 25000 kPa | 894.3
308.15 K, 30000 kPa | 899.2
308.15 K, 35000 kPa | 904.2
313.15 K, 100 kPa | 866.8
313.15 K, 1000 kPa | 867.4
313.15 K, 2000 kPa | 868.4
313.15 K, 3000 kPa | 869.4
313.15 K, 3340 kPa | 869.8
313.15 K, 5000 kPa | 871.7
313.15 K, 10000 kPa | 876.5
313.15 K, 15000 kPa | 880.9
313.15 K, 20000 kPa | 885.1
313.15 K, 25000 kPa | 889.3
313.15 K, 30000 kPa | 894.4
313.15 K, 35000 kPa | 899.5
318.15 K, 100 kPa | 860.9
318.15 K, 1000 kPa | 861.5
318.15 K, 2000 kPa | 862.6
318.15 K, 3000 kPa | 863.7
318.15 K, 3340 kPa | 864.1
318.15 K, 5000 kPa | 866.1
318.15 K, 10000 kPa | 871
318.15 K, 15000 kPa | 875.6
318.15 K, 20000 kPa | 880
318.15 K, 25000 kPa | 884.1
318.15 K, 30000 kPa | 889.1
318.15 K, 35000 kPa | 894.3
323.15 K, 100 kPa | 854.9
323.15 K, 1000 kPa | 856
323.15 K, 2000 kPa | 857.1
323.15 K, 3000 kPa | 858.1
323.15 K, 3340 kPa | 858.4
323.15 K, 5000 kPa | 860.3
323.15 K, 10000 kPa | 865.4
323.15 K, 15000 kPa | 870.2
323.15 K, 20000 kPa | 874.7
323.15 K, 25000 kPa | 879.1
323.15 K, 30000 kPa | 884.3
323.15 K, 35000 kPa | 889.7
328.15 K, 100 kPa | 849.2
328.15 K, 1000 kPa | 850.2
328.15 K, 2000 kPa | 851.3
328.15 K, 3000 kPa | 852.5
328.15 K, 3340 kPa | 852.9
328.15 K, 5000 kPa | 854.7
328.15 K, 10000 kPa | 860
328.15 K, 15000 kPa | 865
328.15 K, 20000 kPa | 869.6
328.15 K, 25000 kPa | 874
328.15 K, 30000 kPa | 879.4
328.15 K, 35000 kPa | 884.9
333.15 K, 100 kPa | 843.1
333.15 K, 1000 kPa | 844.2
333.15 K, 2000 kPa | 845.4
333.15 K, 3000 kPa | 846.6
333.15 K, 3340 kPa | 847
333.15 K, 5000 kPa | 849
333.15 K, 10000 kPa | 854.6
333.15 K, 15000 kPa | 859.7
333.15 K, 20000 kPa | 864.5
333.15 K, 25000 kPa | 869.2
333.15 K, 30000 kPa | 874.8
333.15 K, 35000 kPa | 880.6
338.15 K, 100 kPa | 836.9
338.15 K, 1000 kPa | 838.2
338.15 K, 2000 kPa | 839.5
338.15 K, 3000 kPa | 840.7
338.15 K, 3340 kPa | 841.1
338.15 K, 5000 kPa | 843.1
338.15 K, 10000 kPa | 848.8
338.15 K, 15000 kPa | 854.4
338.15 K, 20000 kPa | 859.4
338.15 K, 25000 kPa | 863.6
338.15 K, 30000 kPa | 869.9
338.15 K, 35000 kPa | 875.8
343.15 K, 100 kPa | 831.1
343.15 K, 1000 kPa | 832.2
343.15 K, 2000 kPa | 833.5
343.15 K, 3000 kPa | 834.8
343.15 K, 3340 kPa | 835.2
343.15 K, 5000 kPa | 837.4
343.15 K, 10000 kPa | 843.4
343.15 K, 15000 kPa | 848.9
343.15 K, 20000 kPa | 854
343.15 K, 25000 kPa | 859.1
343.15 K, 30000 kPa | 865
343.15 K, 35000 kPa | 871
348.15 K, 100 kPa | 824.9
348.15 K, 1000 kPa | 826
348.15 K, 2000 kPa | 827.4
348.15 K, 3000 kPa | 828.8
348.15 K, 3340 kPa | 829.3
348.15 K, 5000 kPa | 831.5
348.15 K, 10000 kPa | 837.7
348.15 K, 15000 kPa | 843.4
348.15 K, 20000 kPa | 848.8
348.15 K, 25000 kPa | 854
348.15 K, 30000 kPa | 860.1
348.15 K, 35000 kPa | 866.3
353.15 K, 100 kPa | 818.7
353.15 K, 1000 kPa | 819.9
353.15 K, 2000 kPa | 821.3
353.15 K, 3000 kPa | 822.7
353.15 K, 3340 kPa | 823.2
353.15 K, 5000 kPa | 825.6
353.15 K, 10000 kPa | 832.1
353.15 K, 15000 kPa | 838
353.15 K, 20000 kPa | 843.5
353.15 K, 25000 kPa | 848.9
353.15 K, 30000 kPa | 855.3
353.15 K, 35000 kPa | 861.6
363.15 K, 100 kPa | 803.5
363.15 K, 1000 kPa | 805.1
363.15 K, 2000 kPa | 806.9
363.15 K, 3000 kPa | 808.7
363.15 K, 3340 kPa | 809.3
363.15 K, 5000 kPa | 812
363.15 K, 10000 kPa | 819.6
363.15 K, 15000 kPa | 826.5
363.15 K, 20000 kPa | 833
363.15 K, 25000 kPa | 839.1
363.15 K, 30000 kPa | 844.8
363.15 K, 35000 kPa | 850.2
373.15 K, 100 kPa | 790.9
373.15 K, 1000 kPa | 792.6
373.15 K, 2000 kPa | 794.5
373.15 K, 3000 kPa | 796.4
373.15 K, 3340 kPa | 797.1
373.15 K, 5000 kPa | 800
373.15 K, 10000 kPa | 808.2
373.15 K, 15000 kPa | 815.6
373.15 K, 20000 kPa | 822.5
373.15 K, 25000 kPa | 829
373.15 K, 30000 kPa | 834.9
373.15 K, 35000 kPa | 840.6
383.15 K, 1000 kPa | 780
383.15 K, 2000 kPa | 782.1
383.15 K, 3000 kPa | 784.1
383.15 K, 3340 kPa | 784.8
383.15 K, 5000 kPa | 787.9
383.15 K, 10000 kPa | 796.6
383.15 K, 15000 kPa | 804.6
383.15 K, 20000 kPa | 811.9
383.15 K, 25000 kPa | 818.7
383.15 K, 30000 kPa | 825
383.15 K, 35000 kPa | 830.9
393.15 K, 1000 kPa | 766.4
393.15 K, 2000 kPa | 768.7
393.15 K, 3000 kPa | 770.8
393.15 K, 3340 kPa | 771.5
393.15 K, 5000 kPa | 775
393.15 K, 10000 kPa | 784.5
393.15 K, 15000 kPa | 793.1
393.15 K, 20000 kPa | 800.8
393.15 K, 25000 kPa | 808
393.15 K, 30000 kPa | 814.7
393.15 K, 35000 kPa | 820.9
